Measured values: PubChem BioAssay (NCI)
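Five concentrations, 48 hours, 96-well plates. GI50: concentration for 50% inhibition of growth. TGI denotes the concentration required for complete inhibition of growth.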

Key:
Assay in all cases: growth of human tumour cells (NCI), 48 h
A498 renal = system: A498 renal
UACC-257 melanoma = system: UACC-257 melanoma
PC-3 prostate = system: PC-3 prostate
SK-MEL-28 melanoma = system: SK-MEL-28 melanoma
EKVX NSCLC = system: EKVX NSCLC
A549 NSCLC = system: A549 NSCLC
MDA-MB-435 = system: MDA-MB-435
SF-268 CNS = system: SF-268 CNS
OVCAR-4 ovarian = system: OVCAR-4 ovarian
MALME-3M melanoma = system: MALME-3M melanoma
MDA-MB-468 breast = system: MDA-MB-468 breast
SK-OV-3 ovarian = system: SK-OV-3 ovarian
NCI-H522 lung = system: NCI-H522 lung
HT29 colon = system: HT29 colon
COLO 205 colon = system: COLO 205 colon
BT-549 breast = system: BT-549 breast
K-562 leukemia = system: K-562 leukemia
TK-10 renal = system: TK-10 renal
T-47D breast = system: T-47D breast
HCT-15 colon = system: HCT-15 colon
CCRF-CEM leukemia = system: CCRF-CEM leukemia
SN12C renal = system: SN12C renal
HOP-92 NSCLC = system: HOP-92 NSCLC
IGROV1 ovarian = system: IGROV1 ovarian
DU-145 prostate = system: DU-145 prostate
SR leukemia = system: SR leukemia
MCF7 breast = system: MCF7 breast
SK-MEL-5 melanoma = system: SK-MEL-5 melanoma
HL-60(TB) leukemia = system: HL-60(TB) leukemia
HS 578T breast = system: HS 578T breast
HCC-2998 colon = system: HCC-2998 colon
SW-620 colon = system: SW-620 colon
OVCAR-8 ovarian = system: OVCAR-8 ovarian
KM12 colon = system: KM12 colon
RXF 393 renal = system: RXF 393 renal
UACC-62 melanoma = system: UACC-62 melanoma
ACHN renal = system: ACHN renal
OVCAR-5 ovarian = system: OVCAR-5 ovarian
786-0 renal = system: 786-0 renal
NCI-H226 lung = system: NCI-H226 lung
CAKI-1 renal = system: CAKI-1 renal
SF-295 CNS = system: SF-295 CNS
OVCAR-3 ovarian = system: OVCAR-3 ovarian
RPMI-8226 leukemia = system: RPMI-8226 leukemia
SK-MEL-2 melanoma = system: SK-MEL-2 melanoma
SNB-19 CNS = system: SNB-19 CNS
NCI-H23 lung = system: NCI-H23 lung
LOX IMVI melanoma = system: LOX IMVI melanoma
UO-31 renal = system: UO-31 renal
HCT-116 colon = system: HCT-116 colon
MDA-MB-231 breast = system: MDA-MB-231 breast
M14 melanoma = system: M14 melanoma
SNB-75 CNS = system: SNB-75 CNS
U251 CNS = system: U251 CNS
HOP-62 NSCLC = system: HOP-62 NSCLC
SF-539 CNS = system: SF-539 CNS
MOLT-4 leukemia = system: MOLT-4 leukemia
NCI-H460 lung = system: NCI-H460 lung

Compound `COc1ccccc1[C@H]1C(C(=O)c2ccc(O)cc2)C2(N[C@@H]1c1ccccc1)C(=O)Nc1ccc(Br)cc12` (stereo partly specified) has a GI50 (A498 renal) of 7.26 µM, a TGI (A498 renal) of 15 µM and a GI50 (UACC-257 melanoma) of 7.81 µM. It also gave a TGI (UACC-257 melanoma) of 15.5 µM, a GI50 (PC-3 prostate) of 4.08 µM and a TGI (PC-3 prostate) of 13.9 µM. For the same compound, the GI50 (SK-MEL-28 melanoma) was 8.02 µM, the TGI (SK-MEL-28 melanoma) was 15.4 µM and the GI50 (EKVX NSCLC) was 7.61 µM. The TGI (EKVX NSCLC) was 16.5 µM, the GI50 (A549 NSCLC) was 6.04 µM and the TGI (A549 NSCLC) was 13.6 µM. The GI50 (MDA-MB-435) was 7.39 µM, the TGI (MDA-MB-435) was 15.1 µM and the GI50 (SF-268 CNS) was 7.05 µM. The TGI (SF-268 CNS) was 17.1 µM, the GI50 (OVCAR-4 ovarian) was 7.19 µM and the TGI (OVCAR-4 ovarian) was 16.4 µM. The GI50 (MALME-3M melanoma) was 8.42 µM, the TGI (MALME-3M melanoma) was 16.1 µM and the GI50 (MDA-MB-468 breast) was 2.22 µM. The TGI (MDA-MB-468 breast) was 8.66 µM, the GI50 (SK-OV-3 ovarian) was 8.08 µM and the TGI (SK-OV-3 ovarian) was 16.3 µM. For the same compound, the GI50 (NCI-H522 lung) was 2.77 µM, the TGI (NCI-H522 lung) was 10.4 µM and the GI50 (HT29 colon) was 7.91 µM. It also gave a TGI (HT29 colon) of 17.6 µM, a GI50 (COLO 205 colon) of 8.67 µM and a TGI (COLO 205 colon) of 18.2 µM. It also gave a GI50 (BT-549 breast) of 6.03 µM, a TGI (BT-549 breast) of 13.4 µM and a GI50 (K-562 leukemia) of 10.7 µM. It also gave a TGI (K-562 leukemia) of 43.1 µM, a GI50 (TK-10 renal) of 7.34 µM and a TGI (TK-10 renal) of 15.2 µM. For the same compound, the GI50 (T-47D breast) was 6.67 µM, the TGI (T-47D breast) was 16.6 µM and the GI50 (HCT-15 colon) was 8.02 µM. For the same compound, the TGI (HCT-15 colon) was 18.1 µM, the GI50 (CCRF-CEM leukemia) was 7.57 µM and the TGI (CCRF-CEM leukemia) was 24.4 µM. The GI50 (SN12C renal) was 2.65 µM, the TGI (SN12C renal) was 9.49 µM and the GI50 (HOP-92 NSCLC) was 6.52 µM. It also gave a TGI (HOP-92 NSCLC) of 14.7 µM, a GI50 (IGROV1 ovarian) of 4.56 µM and a TGI (IGROV1 ovarian) of 11.8 µM. The GI50 (DU-145 prostate) was 9.39 µM, the TGI (DU-145 prostate) was 18 µM and the GI50 (SR leukemia) was 5.57 µM. It also gave a TGI (SR leukemia) of 18.4 µM, a GI50 (MCF7 breast) of 6.66 µM and a TGI (MCF7 breast) of 19.1 µM. The GI50 (SK-MEL-5 melanoma) was 9.09 µM, the TGI (SK-MEL-5 melanoma) was 17.1 µM and the GI50 (HL-60(TB) leukemia) was 12.2 µM. For the same compound, the TGI (HL-60(TB) leukemia) was 39.3 µM, the GI50 (HS 578T breast) was 8.2 µM and the TGI (HS 578T breast) was 23.2 µM. The GI50 (HCC-2998 colon) was 6.55 µM, the TGI (HCC-2998 colon) was 14 µM and the GI50 (SW-620 colon) was 8.34 µM. For the same compound, the TGI (SW-620 colon) was 16.8 µM, the GI50 (OVCAR-8 ovarian) was 8.3 µM and the TGI (OVCAR-8 ovarian) was 16.7 µM. For the same compound, the GI50 (KM12 colon) was 7.73 µM, the TGI (KM12 colon) was 16.9 µM and the GI50 (RXF 393 renal) was 5.63 µM. For the same compound, the TGI (RXF 393 renal) was 13.8 µM, the GI50 (UACC-62 melanoma) was 7.15 µM and the TGI (UACC-62 melanoma) was 14.2 µM. The GI50 (ACHN renal) was 7.72 µM, the TGI (ACHN renal) was 15 µM and the GI50 (OVCAR-5 ovarian) was 7.47 µM. The TGI (OVCAR-5 ovarian) was 14.7 µM, the GI50 (786-0 renal) was 8.4 µM and the TGI (786-0 renal) was 16.2 µM. It also gave a GI50 (NCI-H226 lung) of 5.1 µM, a TGI (NCI-H226 lung) of 14.9 µM and a GI50 (CAKI-1 renal) of 2.94 µM. It also gave a TGI (CAKI-1 renal) of 10.7 µM, a GI50 (SF-295 CNS) of 6.63 µM and a TGI (SF-295 CNS) of 14.1 µM. The GI50 (OVCAR-3 ovarian) was 5.35 µM, the TGI (OVCAR-3 ovarian) was 12.4 µM and the GI50 (RPMI-8226 leukemia) was 8.42 µM. It also gave a TGI (RPMI-8226 leukemia) of 47.7 µM, a GI50 (SK-MEL-2 melanoma) of 8.01 µM and a TGI (SK-MEL-2 melanoma) of 15.8 µM. It also gave a GI50 (SNB-19 CNS) of 7.62 µM, a TGI (SNB-19 CNS) of 14.8 µM and a GI50 (NCI-H23 lung) of 8.25 µM. It also gave a TGI (NCI-H23 lung) of 16.7 µM, a GI50 (LOX IMVI melanoma) of 7.63 µM and a TGI (LOX IMVI melanoma) of 18.8 µM. The GI50 (UO-31 renal) was 6.07 µM, the TGI (UO-31 renal) was 12.8 µM and the GI50 (HCT-116 colon) was 7.03 µM. It also gave a TGI (HCT-116 colon) of 15.4 µM, a GI50 (MDA-MB-231 breast) of 6.39 µM and a TGI (MDA-MB-231 breast) of 13.3 µM. It also gave a GI50 (M14 melanoma) of 7.35 µM, a TGI (M14 melanoma) of 15.4 µM and a GI50 (SNB-75 CNS) of 5.98 µM. For the same compound, the TGI (SNB-75 CNS) was 13.6 µM, the GI50 (U251 CNS) was 6.62 µM and the TGI (U251 CNS) was 13.9 µM. For the same compound, the GI50 (HOP-62 NSCLC) was 8.27 µM, the TGI (HOP-62 NSCLC) was 16.7 µM and the GI50 (SF-539 CNS) was 8.07 µM. For the same compound, the TGI (SF-539 CNS) was 15.4 µM, the GI50 (MOLT-4 leukemia) was 4.42 µM and the TGI (MOLT-4 leukemia) was 23.2 µM. It also gave a GI50 (NCI-H460 lung) of 6.91 µM and a TGI (NCI-H460 lung) of 15 µM.
